# Test results reported in the supplement of paper PMC5303821, “Major sulfonate transporter Soa1 in Saccharomyces cerevisiae and considerable substrate diversity in its fungal family” (Nature Communications, 2017).
# Experiments:
# Settings in all cases: sulfur source concentration 200 µM; S. cerevisiae S288C/BY sul1Δ sul2Δ soa1Δ with transporter ortholog inserted at SOA1 locus; sulfur-free B medium, 4% glucose, pH 6.5, sole sulfur source
# [1] = system: Metarhizium robertsii_XP_007823832; assay: maximal growth rate with compound as sole sulfur source (OD600 per h); higher = better growth / uptake of the sulfur source
# Method: (§1)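 S. cerevisiae sul1Δ sul2Δ soa1Δ strains expressing 20 fungal SOA1 orthologs (or no transporter, 'soa1 del') were grown in liquid sulfur-free B medium, 4% glucose, pH 6.5 (7 mM K2HPO4). The strains were sulfur-starved for 3 days beforehand. Each sulfur compound was the sole sulfur source at 200 µM (sulfate also at 40 mM). OD600 curves of duplicate cultures were averaged and fitted (logistic / Richards, GroFit) to give maximal growth rate, maximal density and lag phase; temperature not stated.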
# [2] = system: Saccharomyces eubayanus_SOA1; assay: as above
# Method: as §1
# [3] = system: Aspergillus nidulans_XP_681611; assay: as above
# Method: as §1
# soa1 del [4] = assay: as above
# Method: as §1
# [5] = system: Aspergillus nidulans_XP_661711; assay: as above
# Method: as §1
# [6] = system: Aspergillus nidulans_XP_660670; assay: as above
# Method: as §1
# [7] = system: Saccharomyces cerevisiae_SOA1; assay: as above
# Method: as §1
# [8] = system: Aspergillus nidulans (IAM 2006)_astA; assay: as above
# Method: as §1
# [9] = system: Aspergillus nidulans_CBF74694; assay: as above
# Method: as §1
# [10] = system: Metarhizium robertsii_XP_007822519; assay: as above
# Method: as §1
# [11] = system: Saccharomyces uvarum_SOA1; assay: as above
# Method: as §1
# [12] = system: Aspergillus nidulans_XP_660563; assay: as above
# Method: as §1
# [13] = system: Aspergillus nidulans_CBF80346; assay: as above
# Method: as §1
# [14] = system: Saccharomyces uvarum_SOA2; assay: as above
# Method: as §1
# [15] = system: Ogataea parapolymorpha_XP_013935289; assay: as above
# Method: as §1
# [16] = system: Metarhizium robertsii_XP_007821441; assay: as above
# Method: as §1
# [17] = system: Ogataea parapolymorpha_XP_013932458; assay: as above
# Method: as §1
# [18] = system: Aspergillus nidulans_XP_661733; assay: as above
# Method: as §1
# [19] = system: Fusarium oxysporum_ENH65823; assay: as above
# Method: as §1
# [20] = system: Ogataea parapolymorpha_XP_013936897; assay: as above
# Method: as §1
# [21] = system: Saccharomyces eubayanus_SOA2; assay: as above
# Method: as §1
# [22] = system: Metarhizium robertsii_XP_007823832; assay: maximal culture density with compound as sole sulfur source (OD600); higher = better growth
# Method: as §1
# [23] = system: Saccharomyces eubayanus_SOA1; assay: as above
# Method: as §1
# [24] = system: Aspergillus nidulans_XP_681611; assay: as above
# Method: as §1
# soa1 del [25] = assay: as above
# Method: as §1
# [26] = system: Aspergillus nidulans_XP_661711; assay: as above
# Method: as §1
# [27] = system: Aspergillus nidulans_XP_660670; assay: as above
# Method: as §1
# [28] = system: Saccharomyces cerevisiae_SOA1; assay: as above
# Method: as §1
# [29] = system: Aspergillus nidulans (IAM 2006)_astA; assay: as above
# Method: as §1
# [30] = system: Aspergillus nidulans_CBF74694; assay: as above
# Method: as §1
# [31] = system: Metarhizium robertsii_XP_007822519; assay: as above
# Method: as §1
# [32] = system: Saccharomyces uvarum_SOA1; assay: as above
# Method: as §1
# [33] = system: Aspergillus nidulans_XP_660563; assay: as above
# Method: as §1
# [34] = system: Aspergillus nidulans_CBF80346; assay: as above
# Method: as §1
# [35] = system: Saccharomyces uvarum_SOA2; assay: as above
# Method: as §1
# [36] = system: Ogataea parapolymorpha_XP_013935289; assay: as above
# Method: as §1
# [37] = system: Metarhizium robertsii_XP_007821441; assay: as above
# Method: as §1
# [38] = system: Ogataea parapolymorpha_XP_013932458; assay: as above
# Method: as §1
# [39] = system: Aspergillus nidulans_XP_661733; assay: as above
# Method: as §1
# [40] = system: Fusarium oxysporum_ENH65823; assay: as above
# Method: as §1
# [41] = system: Ogataea parapolymorpha_XP_013936897; assay: as above
# Method: as §1
# [42] = system: Saccharomyces eubayanus_SOA2; assay: as above
# Method: as §1
# [43] = system: Saccharomyces cerevisiae_SOA1; assay: lag phase before growth; higher = slower start of growth
# Method: as §1
# [44] = system: Saccharomyces uvarum_SOA2; assay: as above
# Method: as §1
# [45] = system: Ogataea parapolymorpha_XP_013935289; assay: as above
# Method: as §1
compound,measurement,setting,value
O=S(=O)(O)CCO [Isethionate],maximal growth rate,[1],0.0144
same,maximal growth rate,[2],0.0612
same,maximal growth rate,[3],0.00854
same,maximal growth rate,soa1 del [4],0.00355
same,maximal growth rate,[5],0.00367
same,maximal growth rate,[6],0.00369
same,maximal growth rate,[7],0.0707
same,maximal growth rate,[8],0.0178
same,maximal growth rate,[9],0.00301
same,maximal growth rate,[10],0.0519
same,maximal growth rate,[11],0.0659
same,maximal growth rate,[12],0.00647
same,maximal growth rate,[13],0.00382
same,maximal growth rate,[14],0.0695
same,maximal growth rate,[15],0.0699
same,maximal growth rate,[16],0.00324
same,maximal growth rate,[17],0.00421
same,maximal growth rate,[18],0.00489
same,maximal growth rate,[19],0.00374
same,maximal growth rate,[20],0.0049
same,maximal growth rate,[21],0.0595
same,maximal culture density,[22],0.501
same,maximal culture density,[23],1.58
same,maximal culture density,[24],0.373
same,maximal culture density,soa1 del [25],0.235
same,maximal culture density,[26],0.233
same,maximal culture density,[27],0.232
same,maximal culture density,[28],1.61
same,maximal culture density,[29],0.489
same,maximal culture density,[30],0.195
same,maximal culture density,[31],1.59
same,maximal culture density,[32],1.59
same,maximal culture density,[33],0.332
same,maximal culture density,[34],0.213
same,maximal culture density,[35],1.71
same,maximal culture density,[36],1.59
same,maximal culture density,[37],0.223
same,maximal culture density,[38],0.242
same,maximal culture density,[39],0.269
same,maximal culture density,[40],0.233
same,maximal culture density,[41],0.289
same,maximal culture density,[42],1.7
NCCS(=O)(=O)O [Taurine],lag phase before growth,[43],9.53 h
same,lag phase before growth,[44],7.75 h
same,lag phase before growth,[45],7.77 h
same,maximal growth rate,[1],0.0141
same,maximal growth rate,[2],0.00369
same,maximal growth rate,[3],0.0063
same,maximal growth rate,soa1 del [4],0.00366
same,maximal growth rate,[5],0.0038
same,maximal growth rate,[6],0.00383
same,maximal growth rate,[7],0.0291
same,maximal growth rate,[8],0.0198
same,maximal growth rate,[9],0.00281
same,maximal growth rate,[10],0.00328
same,maximal growth rate,[11],0.00382
same,maximal growth rate,[12],0.00581
same,maximal growth rate,[13],0.00339
same,maximal growth rate,[14],0.0111
same,maximal growth rate,[15],0.0523
same,maximal growth rate,[16],0.0033
same,maximal growth rate,[17],0.00448
same,maximal growth rate,[18],0.00417
same,maximal growth rate,[19],0.00349
same,maximal growth rate,[20],0.0048
same,maximal growth rate,[21],0.00328
same,maximal culture density,[22],0.498
same,maximal culture density,[23],0.284
same,maximal culture density,[24],0.305
same,maximal culture density,soa1 del [25],0.217
same,maximal culture density,[26],0.215
same,maximal culture density,[27],0.214
same,maximal culture density,[28],1.4
same,maximal culture density,[29],0.515
same,maximal culture density,[30],0.187
same,maximal culture density,[31],0.213
same,maximal culture density,[32],0.292
same,maximal culture density,[33],0.311
same,maximal culture density,[34],0.217
same,maximal culture density,[35],0.828
same,maximal culture density,[36],1.6
same,maximal culture density,[37],0.219
same,maximal culture density,[38],0.245
same,maximal culture density,[39],0.228
same,maximal culture density,[40],0.195
same,maximal culture density,[41],0.317
same,maximal culture density,[42],0.258
